Laboratory results reported in paper PMC7269146, “Jingzhaotoxin-X, a gating modifier of Kv4.2 and Kv4.3 potassium channels purified from the venom of the Chinese tarantula Chilobrachys jingzhao” (The Journal of Venomous Animals and Toxins Including …, 2020).
Like-named read-outs stand apart in the source and are kept apart here. Where a SMILES comes first, the peptide text is derived from it. Bridges are numbered along the chain shown (N, C = ends).

How the values were obtained:
Type in all cases: cell-based
LVA Cav channels = assay: whole-cell voltage-clamp, LVA Cav currents of rat DRG neurons; conditions: 10 μM, n = 3
Kv4.2 [1] = biological target: T1, Kv4.2 (Rattus norvegicus, UniProt Q63881); assay: whole-cell patch-clamp, Kv4.2 in HEK293t cells, concentration-response and time course
T1 construct: expressed in transfected cells; host or cells: HEK293t
T1 sequence (Q63881 1-630): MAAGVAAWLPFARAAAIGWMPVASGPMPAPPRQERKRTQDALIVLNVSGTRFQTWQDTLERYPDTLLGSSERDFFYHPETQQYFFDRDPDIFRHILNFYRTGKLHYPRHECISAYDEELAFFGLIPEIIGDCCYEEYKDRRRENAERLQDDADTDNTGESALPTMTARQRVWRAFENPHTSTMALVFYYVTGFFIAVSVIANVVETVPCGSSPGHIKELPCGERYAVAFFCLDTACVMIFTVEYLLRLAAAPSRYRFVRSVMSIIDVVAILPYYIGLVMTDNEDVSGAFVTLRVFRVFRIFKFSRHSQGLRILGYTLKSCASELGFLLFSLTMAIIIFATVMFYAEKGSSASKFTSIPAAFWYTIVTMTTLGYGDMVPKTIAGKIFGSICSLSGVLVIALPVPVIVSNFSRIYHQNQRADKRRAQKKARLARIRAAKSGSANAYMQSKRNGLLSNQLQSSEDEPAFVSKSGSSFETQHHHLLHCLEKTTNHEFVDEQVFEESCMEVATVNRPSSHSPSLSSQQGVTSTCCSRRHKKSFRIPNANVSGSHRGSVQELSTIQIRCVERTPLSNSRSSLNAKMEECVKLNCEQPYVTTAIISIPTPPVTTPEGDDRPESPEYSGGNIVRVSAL
Text: (§1) Rat cDNA genes encoding Kv4.2 (Accession: NM_031730.2) and Kv4.3 (Accession: AB003587.1) were subcloned to vector pcDNA3.1. In addition, human cDNA genes encoding Nav1.7 (Accession: DQ857292.1) and Nav1.5 (Accession: AB158469.2) were subcloned to vectors pcDNA3.1-mod and pcDNA3.1, separately. Then, Kv4.2, Kv4.3, Nav1.5 and Nav1.7 constructs were transiently transfected into the human embryonic kidney 293t (HEK293t) cells using lipofectamine 2000 (Invitrogen, USA) in accordance with manufacturer protocols. Thereafter, HEK293 cells were inoculated within Dulbecco’s modified Eagle’s medium (DMEM) containing 10% fetal bovine serum (FBS) at 5% CO2 and 37°C. The Kv4.3 channel and the Kv4.2 counterpart were then transfected in the absence of β subunit. Subsequently, cells were incubated with a DNA-lipofectamine mixture (one reporter plasmid for green fluorescence protein and channel constructs) for 4-6 h, and were washed with the fresh medium.
An EPC-10 patch-clamp amplifier (HEKA, Germany) was employed to record the potassium currents at the configuration of whole-cell patch-clamp under an ambient temperature of 22-25°C. The resistance was 2.0-3.0 MΩ when the recording pipette contained a full volume of internal solution (supplemented with 140 mM KCl, 10 mM HEPES, 2.5 mM MgCl2, 5 mM ATP and 11 mM EGTA). KOH was utilized to adjust the pH to 7.2, while sucrose was employed to adjust the osmolarity to 310 mOsm/L. The culture medium was replaced with an external solution containing 150 mM NaCl, 2.5 mM CaCl2, 10 mM HEPES, 2 mM MgCl2, 5 mM KCl, and 10 mM D-glucose. Similarly, sucrose and NaOH were applied to adjust the osmolarity to 330 mOsm/L and pH to 7.4. […] The series resistance was maintained at about 5 MΩ, with 65-70% compensation. Finally, the leakage currents and linear capacitance were subtracted digitally according to the P/4 protocol. […]
On-rates were determined by fitting time course data with a single exponential decay function (2): y = Ae^-kx + C, where x is the time, A is the normalized current value before the application of toxin (usually 1.0), and C is the final normalized current value following the block by the toxin. The on-rate (τon) was determined from the inverse of the rate constant k.
Off-rates were determined by fitting time course data with a double exponential association function (3): y = A(1-e^-kx) + B(1-e^-fx) + C, where x is the time, A or B is the normalized current value after washout of the toxin (usually 1.0 if complete washout occurred), and C is the normalized current value before the washout of the toxin. The off-rate (τoff) was determined from the inverse of the rate constant k or f.

Kv4.2 [2] = biological target: T1, Kv4.2; assay: triple-pulse protocol, toxin dissociation by strong depolarization, Kv4.2 in HEK 293T cells; conditions: 500 nM; for inhibition at 0.5 µM: HEK-293T
Text: as §1
An EPC-10 patch-clamp amplifier (HEKA, Germany) was employed to record the potassium currents at the configuration of whole-cell patch-clamp under an ambient temperature of 22-25°C. The resistance was 2.0-3.0 MΩ when the recording pipette contained a full volume of internal solution (supplemented with 140 mM KCl, 10 mM HEPES, 2.5 mM MgCl2, 5 mM ATP and 11 mM EGTA). KOH was utilized to adjust the pH to 7.2, while sucrose was employed to adjust the osmolarity to 310 mOsm/L. The culture medium was replaced with an external solution containing 150 mM NaCl, 2.5 mM CaCl2, 10 mM HEPES, 2 mM MgCl2, 5 mM KCl, and 10 mM D-glucose. Similarly, sucrose and NaOH were applied to adjust the osmolarity to 330 mOsm/L and pH to 7.4. […] The series resistance was maintained at about 5 MΩ, with 65-70% compensation. Finally, the leakage currents and linear capacitance were subtracted digitally according to the P/4 protocol.
Subsequently, we examined whether strong depolarization induced toxin dissociation from potassium channels. To address this question, the triple-pulse protocol was utilized, which used the test pulse of +20 mV after potent depolarization (+130 mV) to measure the available Kv4.2 currents (Fig. 6, inset). […] Furthermore, this toxin also affected the amplitude of outward Kv4.2 currents (46.3 ± 5.6%) by the second pulse (+130 mV). Typically, the amplitude of current acquired was nearly the same as that in controls induced by a third pulse (+20 mV), since the inhibition was only 17.5 ± 3.9% (Fig. 6, n = 7).
Figure 6. Potent depolarization dissociated the toxin-channel complex. The 300 ms test pulse at the voltage of +20 mV was utilized to induce the current traces. Prior to the application of test pulse, cells held at the voltage of -80 mV depolarized for 500 ms at the conditioning pulse of +130 mV and the holding potential of 50 ms (see inset). Following 500 nM JZTX-X perfusion, the test pulse-elicited current amplitude was nearly identical to the control after the 500 ms conditioning pulse.

## CC(C)C[C@@H]1NC(=O)[C@H](CCCCN)NC(=O)[C@H](Cc2ccc(O)cc2)NC(=O)[C@@H]2CSSC[C@@H]3NC(=O)[C@H](Cc4ccc(O)cc4)NC(=O)[C@H](Cc4ccccc4)NC(=O)CNC(=O)[C@H](C)NC(=O)[C@H](CSSC[C@H](NC(=O)[C@@H](N)CC(C)C)C(=O)N[C@@H](CO)C(=O)N[C@@H](CCCNC(=N)N)C(=O)N[C@@H](CCC(=O)O)C(=O)NCC(=O)N[C@@H](CCC(=O)O)C(=O)N[C@@H](Cc4ccccc4)C(=O)N2)NC(=O)[C@H](CSSC[C@@H](C(=O)N[C@@H](Cc2ccc(O)cc2)C(=O)N[C@@H](CCCNC(=N)N)C(=O)N[C@@H](CC(N)=O)C(=O)O)NC(=O)[C@H](Cc2c[nH]cn2)NC(=O)[C@H](CC(C)C)NC(=O)[C@H](C(C)C)NC(=O)[C@H](Cc2ccccc2)NC(=O)[C@H](C)NC(=O)[C@H](CCCCN)NC3=O)NC(=O)[C@H](CCCCN)NC(=O)[C@H](CCCNC(=N)N)NC1=O [JZTX-X, Jingzhaotoxin-X] (H-LCSREGEFCYKLRKCCAGFYCKAFVLHCYRN-OH; disulfide 2-16, 9-21, 15-28; N-terminus assumed)
LVA Cav channels
  inhibition of LVA Cav current: less than 5%
Kv4.2 [1]; -80 mV, no pulse during first ~100 s of treatment with 200 nM or 500 nM (order Kv4.2, Kv4.3), same as with pulses at 5 s intervals, n = 5
  inhibition of Kv4.2 at resting potential without pulses: approximately 95%
Kv4.2 [1]; HEK293t cells, 1 nM-10 μM, 300-ms step to +20 mV from -80 mV, 22-25°C, pH 7.4, Hill equation fit, n = 7, read-out: IC50 for Kv4.2 channels
  IC50: 68 nM
Kv4.2 [1]; HEK293t cells, +20 mV from -80 mV, n = 7
  Hill Coefficient, Kv4.2: 0.91
Kv4.2 [1]; in 3 min following rinsing, high JZTX-X dose, HEK293t cells, n = 6
  reversal of Kv4.2 inhibition after rinsing: > 95%
Kv4.2 [2]; 500 ms conditioning pulse, n = 7, 0.5 µM
  inhibition of Kv4.2 outward current, second pulse (+130 mV): ~ 46%
Kv4.2 [2]; holding -80 mV, n = 7, 0.5 µM
  inhibition of Kv4.2 current, first pulse (+20 mV): ~ 93%
Kv4.2 [2]; 500 ms conditioning pulse, n = 7, read-out: inhibition of Kv4.2 outward current, second pulse (+130 mV)
  inhibition at 0.5 µM: 46.3 ± 5.6%
Kv4.2 [2]; after +130 mV conditioning pulse, n = 7, read-out: inhibition of Kv4.2 current, third pulse (+20 mV)
  inhibition at 0.5 µM: 17.5 ± 3.9%
Kv4.2 [2]; holding -80 mV, n = 7, read-out: inhibition of Kv4.2 current, first pulse (+20 mV)
  inhibition at 0.5 µM: 92.6 ± 3.2%
